Tests used:
epinephrine = assay: 56-day placebo-controlled study: 24 h urine epinephrine; assay type: in vivo, human; conditions: after 7 or 56 days of treatment; small number of evaluable samples
Method: (§1) A fifty-six-day, double-blind, randomized, placebo-controlled, parallel-group study was conducted to assess the effects of lorcaserin hydrochloride administration to overweight and obese male and female patients. The study was completed according to the guidelines of Good Clinical Practice and was conducted in full compliance with the World Medical Association Declaration of Helsinki and its most recent amendments.
(§2) Fifty-seven overweight or obese adult male and female subjects aged 18 to 65 years inclusive were randomized to one of two treatment groups: placebo or lorcaserin hydrochloride (10 mg) twice-a-day (BID) for 56 days. The majority of subjects were female (68.4%) and Caucasian (63.2%). […]
(§3) The analyses of all efficacy variables used the Modified Intent-to-Treat Population (MITT) population. Patient data were analyzed according to the treatment assigned at randomization, regardless of the treatment received during the course of the trial. […] Compliance was assessed by the number of remaining tablets. […]
(§4) Mean concentrations and mean change from baseline in 24 h urine epinephrine and norepinephrine at Day 7 and Day 56 were assessed. […] Epinephrine was below the limit of quantitation in 44 of 55 available patient samples at Day 7 and 33 of 52 available samples at Day 56. […]

[1] = cited from earlier work
[2] = 56-day placebo-controlled study: safety (adverse events, ECG, BDI-II); assay type: in vivo, human
Method: as §1
(§5) Fifty-seven overweight or obese adult male and female subjects aged 18 to 65 years inclusive were randomized to one of two treatment groups: placebo or lorcaserin hydrochloride (10 mg) twice-a-day (BID) for 56 days. The majority of subjects were female (68.4%) and Caucasian (63.2%). […] Patients were required to participate in the Arena Healthy Lifestyle Program®, designed specifically for this study, which included a 600 kcal deficit diet and 30 minutes of moderate exercise per day.
(§6) Each subject underwent screening procedures within 28 days or sooner, prior to dosing on Day 1, over 3 screening visits (Days −28, −14, and −7). This was followed by an initial inpatient period of 4 days, a 3-day outpatient period, a second 4-day inpatient period, a second outpatient period over 45 days which included 7 visits, and a final 3-day inpatient period. Fifty-three subjects completed the study.
(§7) Lorcaserin formulation is composed of white tablets containing lorcaserin (active) and excipients (silicified microcrystalline cellulose NF, hydroxypropyl cellulose NF, croscarmellose sodium NF, magnesium stearate NF and Opadry® II white). The placebo is composed of white tablets containing excipients.
(§8) All enrolled patients received two oral doses per day (one dose in the morning prior to breakfast and one dose in the evening prior to dinner) of study medication (lorcaserin or placebo) for 56 days. Dosing was performed in a double-blind manner so that neither the patient nor the Investigator knew which treatment had been assigned. Patients were told to take the study medication each morning and evening approximately 60 minutes before breakfast and dinner and were encouraged to take the study medication with an adequate amount of water (8 oz or 240 mL). Patients were asked not to crush, break, chew, or dissolve the tablets.
A 12-lead ECG was performed at screening (baseline), and during the exit visit (Day 57). […] Individual subjects experienced abnormalities at all time points including baseline. […] None of the abnormalities were clinically significant.
Serial assessments of depression were performed during the study at Days −2, +6 and +55 (Beck Depression Inventory-II (BDI-II)).

[3] = 56-day placebo-controlled study of lorcaserin hydrochloride: body weight; assay type: in vivo, human; conditions: for Bodyweight, Mean: lorcaserin hydrochloride 10 mg BID oral
Method: as §1, §5, §6, §7, §8
Patients were required to fast for 10 hours prior to each study visit that requires a blood sample for clinical laboratory tests. Participants were weighed (in duplicate) at each study visit wearing a hospital gown. Efforts were made to schedule study visits prior to 10:00 a.m. to capture the fasted body weight and to reduce the variability in body weight normally observed throughout the day. Weights were measured in kilograms (kg).
The analyses of all efficacy variables used the Modified Intent-to-Treat Population (MITT) population. Patient data were analyzed according to the treatment assigned at randomization, regardless of the treatment received during the course of the trial. Inclusion was dependent on the presence of a baseline measurement, consumption of at least one study dose, and a post-randomization measurement. Patients were instructed to bring their unused study drug with them to each study visit. Compliance was assessed by the number of remaining tablets. Change from baseline or percent change from baseline is defined as the change from Day 1 (randomization) measurement. If the Day 1 measurement was not available, the last non-missing pre-randomization measurement was used as the baseline value, otherwise baseline was considered missing. […]

norepinephrine = assay: 56-day placebo-controlled study: 24 h urine norepinephrine; assay type: in vivo, human; conditions: 10 mg BID
Method: as §1, §2, §3, §4

5-HT2A receptors = 5-HT2A receptors (Homo sapiens, UniProt P28223); conditions: cited from earlier work
human 5-HT2C receptors = target: T1, human 5-HT2C receptors (Homo sapiens, UniProt P28335); conditions: cited from earlier work
T1 sequence (P28335 33-458): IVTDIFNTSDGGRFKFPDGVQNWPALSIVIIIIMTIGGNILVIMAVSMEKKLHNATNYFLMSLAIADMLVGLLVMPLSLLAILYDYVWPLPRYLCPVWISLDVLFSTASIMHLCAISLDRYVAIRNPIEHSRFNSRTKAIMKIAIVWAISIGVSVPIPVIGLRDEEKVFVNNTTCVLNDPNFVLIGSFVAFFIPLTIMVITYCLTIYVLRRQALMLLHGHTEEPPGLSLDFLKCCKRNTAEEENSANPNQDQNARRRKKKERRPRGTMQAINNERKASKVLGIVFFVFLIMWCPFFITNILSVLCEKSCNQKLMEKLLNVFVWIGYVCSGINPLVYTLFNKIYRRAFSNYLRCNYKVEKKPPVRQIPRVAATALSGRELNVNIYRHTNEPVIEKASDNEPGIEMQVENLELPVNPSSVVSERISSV

5-HT2B receptors = 5-HT2B receptors (Homo sapiens, UniProt P41595); conditions: cited from earlier work
[4] = phase 3 program, up to two years
[5] = lorcaserin group, 10 mg BID, 56 days

5-HT2A receptors, sequence (P28223 whole entry): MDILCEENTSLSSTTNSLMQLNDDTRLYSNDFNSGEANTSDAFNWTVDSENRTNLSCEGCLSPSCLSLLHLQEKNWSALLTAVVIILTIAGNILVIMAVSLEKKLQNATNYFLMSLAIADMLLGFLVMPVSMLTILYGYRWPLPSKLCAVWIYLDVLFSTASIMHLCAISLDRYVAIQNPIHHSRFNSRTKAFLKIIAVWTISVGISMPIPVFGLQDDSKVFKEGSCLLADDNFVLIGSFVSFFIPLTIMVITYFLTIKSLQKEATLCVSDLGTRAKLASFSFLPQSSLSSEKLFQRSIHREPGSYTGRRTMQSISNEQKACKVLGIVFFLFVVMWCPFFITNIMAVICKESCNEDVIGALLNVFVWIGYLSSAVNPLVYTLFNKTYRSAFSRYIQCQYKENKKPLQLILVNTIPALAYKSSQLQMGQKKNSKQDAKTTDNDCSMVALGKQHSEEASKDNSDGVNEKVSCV
5-HT2B receptors, sequence (P41595 whole entry): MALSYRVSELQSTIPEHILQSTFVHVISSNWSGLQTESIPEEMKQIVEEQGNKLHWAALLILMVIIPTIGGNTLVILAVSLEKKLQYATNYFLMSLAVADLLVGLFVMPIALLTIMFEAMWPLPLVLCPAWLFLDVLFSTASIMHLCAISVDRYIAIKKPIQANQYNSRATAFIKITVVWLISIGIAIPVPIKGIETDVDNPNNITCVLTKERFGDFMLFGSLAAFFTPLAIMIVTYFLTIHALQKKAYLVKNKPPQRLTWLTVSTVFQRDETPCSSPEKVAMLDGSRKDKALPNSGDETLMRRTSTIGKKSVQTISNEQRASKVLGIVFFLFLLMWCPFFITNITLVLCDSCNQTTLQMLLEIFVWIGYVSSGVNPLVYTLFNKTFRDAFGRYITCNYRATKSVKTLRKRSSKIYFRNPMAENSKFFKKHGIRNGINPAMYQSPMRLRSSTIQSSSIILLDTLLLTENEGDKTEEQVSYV

C[C@H]1CNCCc2ccc(Cl)cc21 [Lorcaserin, (R)-8-Chloro-1-methyl-2,3,4,5-tetrahydro-1H-3-benzazepine]
24 h epinephrine excretion (epinephrine): no change
excess body weight lost (normal BMI of 25) ([1]; first phase 3 trial): about one-third
patients achieving at least 5% weight loss [1, 4]: About two-thirds
patients achieving at least 10% weight loss [1, 4]: over one-third
average weight lost, of their weight ([1]; phase 3 program): about 8%
depression or suicidal ideation ([1]; phase 3 program): no signal
heart rate and blood pressure ([1]; phase 3 program): went down
risk of cardiac valvulopathy ([1]; phase 3 program): did not increase the risk
average weight loss, top quartile of patients ([1]; second phase 3 trial): 35 pounds
average weight loss, top quartile of patients, of body weight ([1]; second phase 3 trial): 16%
deaths or serious adverse events ([2]; 10 mg BID, 56 days): No deaths or serious adverse events occurred
early terminations due to AEs ([2]; 10 mg BID, 56 days): no early terminations due to AEs
incidence of depression related adverse events ([2]; 10 mg BID, 56 days): did not increase
tolerability ([2]; 10 mg BID, 56 days): generally well tolerated
Beck Depression Inventory-II (BDI-II), difference between lorcaserin and placebo groups ([2]; Days -2, +6 and +55): No meaningful differences
Headache, subjects with at least 1 event ([2]; lorcaserin group (29 randomized), 10 mg BID, 56 days): 11 subjects
Dizziness, subjects reporting [2, 5]: 3 subjects
Headache, rate of subjects with at least 1 event [2, 5]: 37.9%
12-lead ECG effects ([2]; screening vs exit visit (Day 57)): no apparent treatment-related effects on ECG
Bodyweight, Mean ([3]; Day 1 (baseline), overweight/obese patients): 96.59 kg
Bodyweight, Mean ([3]; Day 6): 96.67 kg
Bodyweight, Mean ([3]; Day 55): 93.84 kg
weight loss ([3]; at 6 days, 10 mg BID): No significant weight loss
weight loss as compared to placebo ([3]; at 55 days, 10 mg BID): Significantly greater weight loss
24 h norepinephrine excretion in urine (norepinephrine; after 7 days (p<0.0001)): significant decrease
24 h norepinephrine excretion in urine (norepinephrine; after 56 days (p<0.001)): significant decrease

CN(C)[C@@H]1Cc2ccccc2[C@@H](c2ccccc2)C1 [(1R,3S)-(−)-trans-1-phenyl-3-dimethylamino-1,2,3,4-tetrahydronaphthalene]
activity at 5-HT2A receptors (5-HT2A receptors): antagonist
activity at human 5-HT2C receptors (human 5-HT2C receptors): agonist
activity at 5-HT2B receptors (5-HT2B receptors): antagonist
